Laboratory results: patent US20240150293A1, “SPIROCYCLOHEXANE DERIVATIVES, PHARMACEUTICAL COMPOSITIONS CONTAINING THEM AND THEIR USES AS ANTI-APOPTOTIC INHIBITORS” (LES LABORATOIRES SERVIER, priority 2021, published 2024)
pIC50, pKi: −log10 of the molar value. Like-named read-outs stand apart in the source and are kept apart here.

What was measured:
NCI-H929 cell lines = assay: In vitro cytotoxicity, CellTiter-Glo (CTG) assay (Example B, Method B); format: cell-based; conditions: Homo sapiens, NCI-H929, 48 h, NCI-H929 cells, 48 h incubation, read-out: C50
Method in brief: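 NCI-H929 cells exposed to an 11-point compound series from 10 mM DMSO stocks (top final 30 μM) for 48 h at 37° C., 5% CO2. Viability measured as ATP by CellTiter-Glo luminescence; C50 is the concentration giving 50% cellular viability.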

[1] = target: Cy5-labelled Mcl1 (amino acids 171-321) C286S protein (UniProtKB Q07820) (Homo sapiens (Human), UniProt Q07820, C286S); assay: Inhibition of Mcl-1 by the fluorescence quenching assay (Example A, Method B); format: binding
Sequence of Cy5-labelled Mcl1 (amino acids 171-321) C286S protein (Q07820 171-321 C286S): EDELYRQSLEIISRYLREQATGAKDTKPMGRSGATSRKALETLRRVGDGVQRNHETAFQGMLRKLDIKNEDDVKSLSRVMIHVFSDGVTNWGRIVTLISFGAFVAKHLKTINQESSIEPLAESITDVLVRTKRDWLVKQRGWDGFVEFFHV
Method in brief: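 Cy5-labelled Mcl1 171-321 C286S (1 nM) quenched by TQ5WS-labelled PUMA peptide (10, 20 or 400 nM); displacement raises fluorescence (Ex 620/Em 680 nm). Buffer 10 mM HEPES, 150 mM NaCl, 0.05% Tween 20, pH 7.4, 5% DMSO; 2 h at room temperature, 11-point curves, IC50 converted to Ki (cKi/eKi).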

pKi [1]	pKi ([1]; Ki determined from IC50)	inhibition at 1 µM ([1]; @ 1 μM, read-out: Mcl-1 inhibition, % at a single concentration)	SMILES	pIC50 (NCI-H929 cell lines)
10.09	–	–	C[C@@H](COc1ccnc2c1[C@H](C)CCC2)C[C@H]1Cc2cccc(F)c2[C@]12CC[C@@](Nc1cccc(Cl)c1)(C(=O)O)CC2 [Example 763, (1r,2′S,4S)-4-(3-chloroanilino)-7′-fluoro-2′-[(2R)-2-methyl-3-{[(5R)-5-methyl-5,6,7,8-tetrahydroquinolin-4-yl]oxy}propyl]-2′,3′-dihydrospiro[cyclohexane-1,1′-indene]-4-carboxylic acid]	6.93
10.84	–	–	C[C@@H](COc1ccnc2c1[C@H](C)CCC2)C[C@H]1Cc2cc3c(cc2[C@]12CC[C@@](Nc1cccc(Cl)c1)(C(=O)O)CC2)OC[C@H](C)O3 [Example 971, (1r,2′S,4S,7′S)-4-(3-chloroanilino)-2′-methyl-7′-[(2R)-2-methyl-3-{[(5R)-5-methyl-5,6,7,8-tetrahydroquinolin-4-yl]oxy}propyl]-2′,3′,7′,8′-tetrahydrospiro[cyclohexane-1,6′-indeno[5,6-b][1,4]dioxine]-4-carboxylic acid]	7.39
9.59	–	–	COCCNC(=O)OC(C)OC(=O)[C@]1(Nc2cccc(Cl)c2)CC[C@@]2(CC1)c1cc3c(cc1C[C@@H]2C[C@@H](C)COc1ccnc2c1[C@H](C)CCC2)OCO3 (stereo partly drawn) [Example 947, 1-{[(2-methoxyethyl)carbamoyl]oxy}ethyl (1r,4S,6′S)-4-(3-chloroanilino)-6′-[(2R)-2-methyl-3-{[(5R)-5-methyl-5,6,7,8-tetrahydroquinolin-4-yl]oxy}propyl]-6′,7′-dihydro-2′H-spiro[cyclohexane-1,5′-indeno[5,6-d][1,3]dioxole]-4-carboxylate]	6.22
10.97	–	–	[2H]c1c([2H])c(Cl)c([2H])c(N[C@]2(C(=O)O)CC[C@]3(CC2)c2cc4c(cc2C[C@@H]3C[C@@H](C)COc2ccnc3c2[C@H](C)CCC3)OCO4)c1[2H] [Example 844, (1r,4S,6′S)-4-{[3-chloro(2H4)phenyl]amino}-6′-[(2R)-2-methyl-3-{[(5R)-5-methyl-5,6,7,8-tetrahydroquinolin-4-yl]oxy}propyl]-6′,7′-dihydro-2′H-spiro[cyclohexane-1,5′-indeno[5,6-d][1,3]dioxole]-4-carboxylic acid]	7.53
7.81	–	–	C[C@@H](COc1ccnc2c1[C@H](C)CCC2)C[C@H]1Cc2cc3c(cc2[C@]12CC[C@@](Nc1cccc(Cl)c1)(C(=O)OCOC(=O)C(C)(C)C)CC2)OCO3 [Example 942, [(2,2-dimethylpropanoyl)oxy]methyl (1r,4S,6′S)-4-(3-chloroanilino)-6′-[(2R)-2-methyl-3-{[(5R)-5-methyl-5,6,7,8-tetrahydroquinolin-4-yl]oxy}propyl]-6′,7′-dihydro-2′H-spiro[cyclohexane-1,5′-indeno[5,6-d][1,3]dioxole]-4-carboxylate]	6.65
–	7.14	–	Cc1c(Cl)cccc1N[C@]1(C(=O)O)CC[C@@]2(CC1)c1cc3c(cc1CN2C[C@@H](C)COc1ccnc2c1[C@H](C)CCC2)OCO3 [Example 50, (1r,4R)-4-(3-chloro-2-methylanilino)-6′-[(2R)-2-methyl-3-{[(5R)-5-methyl-5,6,7,8-tetrahydroquinolin-4-yl]oxy}propyl]-6′,7′-dihydro-2′H-spiro[cyclohexane-1,5′-[1,3]dioxolo[4,5-f]isoindole]-4-carboxylic acid]	4.87
10.30	–	–	C[C@@H](COc1ccnc2c1[C@H](C)CCC2)C[C@H]1Cc2ccc(COC3CCCO3)cc2[C@]12CC[C@@](Nc1cccc(Cl)c1)(C(=O)O)CC2 (stereo partly drawn) [Example 872, (1r,2′S,4S)-4-(3-chloroanilino)-2′-[(2R)-2-methyl-3-{[(5R)-5-methyl-5,6,7,8-tetrahydroquinolin-4-yl]oxy}propyl]-6′-{[(oxolan-2-yl)oxy]methyl}-2′,3′-dihydrospiro[cyclohexane-1,1′-indene]-4-carboxylic acid]	7.28
10.47	–	–	C[C@@H](COc1ccnc2c1[C@H](C)CCC2)C[C@H]1Cc2cc3c(cc2[C@]12CC[C@@](Nc1cccc(Cl)c1)(C(=O)O)CC2)OCC[C@@H](C)O3 [Example 986, (1r,2′R,4S,8′S)-4-(3-chloroanilino)-2′-methyl-8′-[(2R)-2-methyl-3-{[(5R)-5-methyl-5,6,7,8-tetrahydroquinolin-4-yl]oxy}propyl]-3′,4′,8′,9′-tetrahydro-2′H-spiro[cyclohexane-1,7′-indeno[5,6-b][1,4]dioxepine]-4-carboxylic acid]	7.06
9.64	–	–	CCOc1cc2c(cc1Br)C[C@H](C[C@@H](C)COc1ccnc3c1[C@H](C)CCC3)[C@]21CC[C@](Nc2cccc(Cl)c2)(C(=O)O)CC1 [Example 817, (1r,2′S,4S)-5′-bromo-4-(3-chloroanilino)-6′-ethoxy-2′-[(2R)-2-methyl-3-{[(5R)-5-methyl-5,6,7,8-tetrahydroquinolin-4-yl]oxy}propyl]-2′,3′-dihydrospiro[cyclohexane-1,1′-indene]-4-carboxylic acid]	6.78
–	–	13.6%	CCN(CC)C(=O)OC(C)OC(=O)[C@]1(Nc2cccc(Cl)c2)CC[C@@]2(CC1)c1cc3c(cc1C[C@@H]2C[C@@H](C)COc1ccnc2c1[C@H](C)CCC2)OCO3 (stereo partly drawn) [Example 949, 1-[(diethylcarbamoyl)oxy]ethyl (1r,4S,6′S)-4-(3-chloroanilino)-6′-[(2R)-2-methyl-3-{[(5R)-5-methyl-5,6,7,8-tetrahydroquinolin-4-yl]oxy}propyl]-6′,7′-dihydro-2′H-spiro[cyclohexane-1,5′-indeno[5,6-d][1,3]dioxole]-4-carboxylate]	< 4.52
10.33	–	–	C[C@@H](COc1ccnc2c1[C@H](C)CCC2)C[C@H]1Cc2cc3c(cc2[C@]12CC[C@@](Nc1cccc(Cl)c1)(C(=O)O)CC2)OCCCCO3 [Example 836, (1r,4S,9′S)-4-(3-chloroanilino)-9′-[(2R)-2-methyl-3-{[(5R)-5-methyl-5,6,7,8-tetrahydroquinolin-4-yl]oxy}propyl]-2′,3′,4′,5′,9′,10′-hexahydrospiro[cyclohexane-1,8′-indeno[5,6-b][1,4]dioxocine]-4-carboxylic acid]	6.97
10.02	–	–	C[C@@H](COc1ccnc2c1[C@H](C)CCC2)C[C@H]1Cc2cc3c(cc2[C@]12CC[C@@](Nc1cccc(Cl)c1)(C(=O)O)CC2)OCC[C@H](C)O3 [Example 985, (1r,2′S,4S,8′S)-4-(3-chloroanilino)-2′-methyl-8′-[(2R)-2-methyl-3-{[(5R)-5-methyl-5,6,7,8-tetrahydroquinolin-4-yl]oxy}propyl]-3′,4′,8′,9′-tetrahydro-2′H-spiro[cyclohexane-1,7′-indeno[5,6-b][1,4]dioxepine]-4-carboxylic acid]	6.92
9.83	–	–	COCCOc1cc2c(cc1Cl)C[C@H](C[C@@H](C)COc1ccnc3c1[C@H](C)CCC3)[C@]21CC[C@](Nc2cccc(Cl)c2)(C(=O)O)CC1 [Example 822, (1r,2′S,4S)-5′-chloro-4-(3-chloroanilino)-6′-(2-methoxyethoxy)-2′-[(2R)-2-methyl-3-{[(5R)-5-methyl-5,6,7,8-tetrahydroquinolin-4-yl]oxy}propyl]-2′,3′-dihydrospiro[cyclohexane-1,1′-indene]-4-carboxylic acid]	7.19
10.62	–	–	C[C@@H](COc1ccnc2c1[C@H](C)CCC2)C[C@H]1Cc2cc3c(cc2[C@]12CC[C@@](Nc1cccc(Cl)c1)(C(=O)O)CC2)OCC(C)(C)CO3 [Example 981, (1r,4S,8′S)-4-(3-chloroanilino)-3′,3′-dimethyl-8′-[(2R)-2-methyl-3-{[(5R)-5-methyl-5,6,7,8-tetrahydroquinolin-4-yl]oxy}propyl]-3′,4′,8′,9′-tetrahydro-2′H-spiro[cyclohexane-1,7′-indeno[5,6-b][1,4]dioxepine]-4-carboxylic acid]	7.07
–	9.01	–	C[C@@H](COc1ccnc2c1[C@H](C)CCC2)CN1Cc2ccccc2[C@]12CC[C@@](Nc1cccc(Cl)c1)(C(=O)O)CC2 [Example 40, (1s,4S)-4-(3-chloroanilino)-2′-[(2R)-2-methyl-3-{[(5R)-5-methyl-5,6,7,8-tetrahydroquinolin-4-yl]oxy}propyl]-2′,3′-dihydrospiro[cyclohexane-1,1′-isoindole]-4-carboxylic acid]	6.55
8.91	–	–	C[C@@H](COc1ccnc2c1[C@H](C)CCC2)C[C@@H]1Cc2ccc(-c3ccc[nH]3)cc2[C@]12CC[C@@](Nc1cccc(Cl)c1)(C(=O)O)CC2 [Example 880, (1r,2′R,4R)-4-(3-chloroanilino)-2′-[(2R)-2-methyl-3-{[(5R)-5-methyl-5,6,7,8-tetrahydroquinolin-4-yl]oxy}propyl]-6′-(1H-pyrrol-2-yl)-2′,3′-dihydrospiro[cyclohexane-1,1′-indene]-4-carboxylic acid]	6.08
11.13	–	–	C[C@@H](COc1ccnc2c1[C@H](C)CCC2)C[C@H]1Cc2cc3c(cc2[C@]12CC[C@@](Nc1cccc(Cl)c1)(C(=O)O)CC2)OCCCO3 [Example 837, (1r,4S,8′S)-4-(3-chloroanilino)-8′-[(2R)-2-methyl-3-{[(5R)-5-methyl-5,6,7,8-tetrahydroquinolin-4-yl]oxy}propyl]-3′,4′,8′,9′-tetrahydro-2′H-spiro[cyclohexane-1,7′-indeno[5,6-b][1,4]dioxepine]-4-carboxylic acid]	7.51
